Assay results: patent US10183938B2, “Geminal substituted quinuclidine amide compounds as agonists of α-7 nicotonic acetylcholine receptors” (AXOVANT SCIENCES GMBH, priority 2014, dated 2019)
Structures can show the parent of a compound that is named as a salt. Where two headings read alike, the source gives them in different places.

Legend:
[1] = biological target: human 5-HT3 serotonin receptors (Homo sapiens (Human), UniProt P46098); assay: [3H]BRL 43694 competition binding
[2] = biological target: human α7 nAChRs transiently expressed in Xenopus laevis oocytes (Homo sapiens (Human), UniProt P36544); assay: Oocyte electrophysiology screen (TEVC); type: cell-based; conditions: 0.01 mM test compound, peak current relative to 0.2 mM ACh
Procedure, shortened: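 Oocytes expressing human α7 were clamped at −80 mV by TEVC. After a 0.2 mM ACh control pulse, test compound was applied at 0.01 mM for 30 s. Agonist response is peak current as % of the ACh response, in triplicate.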

[3] = system: male Wistar rats; assay: Novel Object Recognition task (natural forgetting); type: in vivo, rat; conditions: sub-cutaneous, 30 minutes before T1, 48-hour retention interval, p<0.05 novel vs. familiar object
Excerpt: Novel Object Recognition Task:
The Novel Object Recognition (NOR) task is a behavioral assay commonly used to evaluate cognition, particularly recognition memory, in rodent models of CNS disorders. This test is based on the spontaneous tendency of rodents to spend more time exploring a novel object compared to a familiar one. The choice to explore the novel object reflects the use of learning and recognition memory. The assay is commonly used to evaluate potential therapeutic agents for Alzheimer's disease, other neurodegenerative diseases and psychiatric disorders.
Male Wistar rats (Harlan Laboratories) weighing 350-400 grams were housed under a reversed light cycle and are tested during the dark cycle. Testing was done under low lux conditions, measured to be ˜2-7 lux under red light. Animals were habituated and weighed one day prior to testing. During habituation, animals were placed in a cylindrical arena and allowed to explore for 3 minutes. Training (T1) was conducted approximately 24 hours later, with one set of identical objects placed on opposite sides of the arena. Animals were allowed to explore the objects in 3-minute sessions. Animals were dosed with a designated treatment 15-60 minutes prior to testing depending on the pharmacokinetic profile of the compound before the start of T1. Drug or vehicle was dosed subcutaneously based on body weight at 5 mL/kg. Testing (T2) was done at 48 hours after T1. During testing, one familiar object is replaced with a novel object. Animals were allowed to explore both objects in 3-minute sessions.
Animals were tracked using Noldus Ethovision XT (EthoVision XT version: 8.5, Noldus Inc. Wageningen, Netherlands) tracking software, using a 2 centimeter (cm) perimeter for each object as a separate zone. The test arena consisted of a cylinder, 80 cm diameter with 40 cm high walls of black acrylic that was opaque and matte. […]
Contact time was defined as the amount of time (seconds) an animal spent within the 2 cm perimeter of an object. […] Statistical significance was determined using a Mann Whitney U-test and the criterion was set at p<0.05. […]

[4] = CHO cell membranes, [3H]BRL 43694, Cheng Prusoff, read-out: h-5HT3 Ki

Chain of human 5-HT3 serotonin receptors (P46098 24-478): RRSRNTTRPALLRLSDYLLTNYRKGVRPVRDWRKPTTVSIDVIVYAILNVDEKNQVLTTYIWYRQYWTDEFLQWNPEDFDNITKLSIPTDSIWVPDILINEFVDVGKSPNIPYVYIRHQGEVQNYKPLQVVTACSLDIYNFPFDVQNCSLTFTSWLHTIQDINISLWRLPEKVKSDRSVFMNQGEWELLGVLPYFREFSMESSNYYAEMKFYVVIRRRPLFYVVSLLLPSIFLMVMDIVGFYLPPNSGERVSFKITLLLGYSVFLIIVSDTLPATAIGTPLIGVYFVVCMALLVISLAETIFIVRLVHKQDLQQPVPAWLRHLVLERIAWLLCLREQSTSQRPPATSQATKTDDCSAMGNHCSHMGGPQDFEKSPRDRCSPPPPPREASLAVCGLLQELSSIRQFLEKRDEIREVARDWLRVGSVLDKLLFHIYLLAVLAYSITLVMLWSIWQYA
Chain of human α7 nAChRs transiently expressed in Xenopus laevis oocytes (P36544 23-502 limits assumed): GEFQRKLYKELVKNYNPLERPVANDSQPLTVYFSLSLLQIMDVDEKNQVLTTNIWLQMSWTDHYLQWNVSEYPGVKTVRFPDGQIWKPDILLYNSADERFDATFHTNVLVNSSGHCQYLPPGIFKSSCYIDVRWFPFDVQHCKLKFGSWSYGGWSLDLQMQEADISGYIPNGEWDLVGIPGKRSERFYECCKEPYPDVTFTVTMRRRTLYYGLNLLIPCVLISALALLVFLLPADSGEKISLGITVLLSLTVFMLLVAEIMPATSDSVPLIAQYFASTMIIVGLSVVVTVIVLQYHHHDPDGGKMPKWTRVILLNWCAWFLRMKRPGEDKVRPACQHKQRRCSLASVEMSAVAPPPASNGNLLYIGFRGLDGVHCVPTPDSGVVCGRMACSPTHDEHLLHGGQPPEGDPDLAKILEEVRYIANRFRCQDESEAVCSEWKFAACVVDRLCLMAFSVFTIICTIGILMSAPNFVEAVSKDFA

Structure (SMILES)	Ki [1, 4] [nM]	% ACh @ 10 μM Oocyte [2] [% ACh]	Active doses [3] [mg/kg]	% ACh @ 10 μM Oocyte ([2]; hydrochloride) [% ACh]	Ki [1] [nM]
CC1(C)[C@H](NC(=O)c2cc3ccc(Cl)cc3s2)C2CCN1CC2 [(R)-12, (R)-6-chloro-N-(2,2-dimethylquinuclidin-3-yl)benzo[b]thiophene-2-carboxamide hydrochloride]	> 10000	765	30		
O=C(NC1C2CCN(CC2)C12CC2)c1cc2ccc(Cl)cc2s1 (single isomer, unassigned; enantiomer1) [65a, 6-chloro-N-(1′-azaspiro[cyclopropane-1,2′-bicyclo[2.2.2]octan]-3′-yl)benzo[b]thiophene-2-carboxamide-enantiomer1 hydrochloride]			0.3	682	
Cc1ccc2cc(C(=O)NC3C4CCN(CC4)C34CC4)sc2c1 (single isomer, unassigned; enantiomer1) [68a, 6-methyl-N-(1′-azaspiro[cyclopropane-1,2′-bicyclo[2.2.2]octan]-3′-yl)benzo[b]thiophene-2-carboxamide-enantiomer1 hydrochloride]			0.001	769	
O=C(NC1C2CCN(CC2)C12CC2)c1ccc2ccsc2c1 (single isomer, unassigned; enantiomer1) [58a, N-(1′-azaspiro[cyclopropane-1,2′-bicyclo[2.2.2]octan]-3′-yl)benzo[b]thiophene-6-carboxamide-enantiomer1]	910	235			
CC1(C)[C@H](NC(=O)c2cc3ccc(Cl)c(Cl)c3s2)C2CCN1CC2 [(R)-109, (R)-6,7-dichloro-N-(2,2-dimethylquinuclidin-3-yl)benzo[b]thiophene-2-carboxamide hydrochloride]	4000	432			
O=C(N[C@@H]1C2CCN(CC2)C12CC2)c1cc2ccsc2cn1 [(R)-97, (R)—N-(1′-azaspiro[cyclopropane-1,2′-bicyclo[2.2.2]octan]-3′-yl)thieno[2,3-c]pyridine-5-carboxamide hydrochloride]	430	816			
CC1(C)[C@H](NC(=O)c2cc3cc(C4CC4)ccc3s2)C2CCN1CC2 [(R)-19, (R)-5-cyclopropyl-N-(2,2-dimethylquinuclidin-3-yl)benzo[b]thiophene-2-carboxamide hydrochloride]	1600	149			
CC1(C)[C@H](NC(=O)c2cc3ccsc3cn2)C2CCN1CC2 [(R)-43, (R)—N-(2,2-dimethylquinuclidin-3-yl)thieno[2,3-c]pyridine-5-carboxamide hydrochloride]	1500	951			
CC1(C)[C@H](NC(=O)c2ccc3ccsc3c2)C2CCN1CC2 [(R)-5, (R)—N-(2,2-dimethylquinuclidin-3-yl)benzo[b]thiophene-6-carboxamide hydrochloride]	1900	282			
Cc1ccc2cc(C(=O)N[C@@H]3C4CCN(CC4)C3(C)C)sc2c1F [(R)-53, (R)—N-(2,2-dimethylquinuclidin-3-yl)-7-fluoro-6-methylbenzo[b]thiophene-2-carboxamide hydrochloride]	5900	576			
O=C(NC1C2CCN(CC2)C12CC2)c1cc2cccc(Cl)c2s1 (single isomer, unassigned; enantiomer1) [56a, 7-chloro-N-(1′-azaspiro[cyclopropane-1,2′-bicyclo[2.2.2]octan]-3′-yl)benzo[b]thiophene-2-carboxamide-enantiomer1]		1231			48
Cc1csc2ccc(C(=O)N[C@@H]3C4CCN(CC4)C3(C)C)cc12 [(R)-24, (R)—N-(2,2-dimethylquinuclidin-3-yl)-3-methylbenzo[b]thiophene-5-carboxamide hydrochloride]	820	240			
Cc1ccc2cc(C(=O)N[C@@H]3C4CCN(CC4)C34CC4)sc2c1F [(R)-106, (R)-7-fluoro-6-methyl-N-(1′-azaspiro[cyclopropane-1,2′-bicyclo[2.2.2]octan]-3′-yl)benzo[b]thiophene-2-carboxamide hydrochloride]	> 10000	572			
O=C(N[C@@H]1C2CCN(CC2)C12CC2)c1ccc2sccc2c1 [(R)-83, (R)—N-(1′-azaspiro[cyclopropane-1,2′-bicyclo[2.2.2]octan]-3′-yl)benzo[b]thiophene-5-carboxamide hydrochloride]	2400	558			
Cc1csc2cc(C(=O)N[C@@H]3C4CCN(CC4)C34CC4)ccc12 [(R)-78, (R)-3-methyl-N-(1′-azaspiro[cyclopropane-1,2′-bicyclo[2.2.2]octan]-3′-yl)benzo[b]thiophene-6-carboxamide hydrochloride]	2100	31			
O=C(N[C@@H]1C2CCN(CC2)C12CC2)c1cc2ccc(F)c(Cl)c2s1 [(R)-158, (R)-7-chloro-6-fluoro-N-(1′-azaspiro[cyclopropane-1,2′-bicyclo[2.2.2]octan]-3′-yl)benzo[b]thiophene-2-carboxamide hydrochloride]	370	180			
CC1(C)[C@H](NC(=O)c2cc3ccc(F)c(Cl)c3s2)C2CCN1CC2 [(R)-114, (R)-7-chloro-N-(2,2-dimethylquinuclidin-3-yl)-6-fluorobenzo[b]thiophene-2-carboxamide hydrochloride]	620	703			
O=C(N[C@@H]1C2CCN(CC2)C12CC2)c1cc2ccc(Cl)cc2o1 [(R)-163, (R)-6-chloro-N-(1′-azaspiro[cyclopropane-1,2′-bicyclo[2.2.2]octan]-3′-yl)benzofuran-2-carboxamide hydrochloride]	2000	446			
